Each compound was assayed against Neurotensin receptor type 1 (Homo sapiens, UniProt P30989) (assay: NTR1 Ca2+ Flux Dose Response: NTSR1 (NTR1) CHO cells are plated in 20 uL of assay media containing Ham's F12 supplemented with 10% fetal bovine serum and 0.4 mg/mL G418 at a concentration of 1.0×10^6 cells per mL into black, 384-well assay plates with clear bottoms using a Multidrop liquid handler. Assay plates are incubated at 37° C. in 5% CO2. The next day, the assay plates are aspirated to remove growth media and washed once with 20 uL of DPBS. The DPBS is then aspirated from the assay plate and replaced with 25 uL of Fluo-4 NW calcium dye prepared according to the manufacturer's recommendations then the plates are incubated for 1 hour at 37° C. Following the incubation in the presence of dye, the assay is run on a Molecular Devices FlexStation-III using 494 excitation and 516 emission wavelengths set to read for 90 seconds with the addition at 18 seconds of 5 uL of 6× final concentration of test compounds and peptide control diluted in assay media containing 0.1% BSA and no more than 9% DMSO to yield a maximum final DMSO concentration of 1.5%. […] EC50 values were calculated for those compounds tested in 8-point dose dependent response.).
Neurotensin receptor type 1, sequence (P30989 whole entry): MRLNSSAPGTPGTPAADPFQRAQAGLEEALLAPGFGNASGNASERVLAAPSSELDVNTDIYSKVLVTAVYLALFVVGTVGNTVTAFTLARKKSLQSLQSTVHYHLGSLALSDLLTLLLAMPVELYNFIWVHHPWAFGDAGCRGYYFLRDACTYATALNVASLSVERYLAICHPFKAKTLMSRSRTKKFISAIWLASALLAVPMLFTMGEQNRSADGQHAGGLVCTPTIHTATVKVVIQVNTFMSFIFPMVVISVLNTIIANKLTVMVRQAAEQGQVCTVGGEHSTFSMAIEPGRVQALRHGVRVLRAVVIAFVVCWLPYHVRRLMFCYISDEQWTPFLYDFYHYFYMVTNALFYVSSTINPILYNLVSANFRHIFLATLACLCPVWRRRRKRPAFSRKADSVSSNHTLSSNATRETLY
With COc1cccc2c1CCN(c1nc(C3CC3)nc3ccc(N(C)CCO)cc13)C2 the EC50 was > 10 µM. COc1ccccc1C1CCN(c2nc(C3CC3)nc3cc(F)c(N(C)CCO)cc23)CC1 was tested, and the EC50 was < 0.5 µM. For COc1ccccc1C1CCN(c2nc(C3CC3)nc3c(N(C)CCO)cccc23)CC1, the EC50 was > 10 µM. With COc1ccccc1C1CCN(c2nc(C3CC3)nc(C)c2CC(=O)N(C)CCO)CC1 the EC50 was > 10 µM.
